Experimental data from US20210171598A1, “PEPTIDE HORMONE WITH ONE OR MORE O-GLYCANS” (priority 2017, published 2021).
Where two headings read alike, the source gives them in different places.

Target: neprilysin (NEP) (Homo sapiens, UniProt P08473)
Experiment: In vitro degradation by neprilysin, MALDI-TOF time course
Description: Many peptide hormones are destined for endocrine circulation where they are rapidly degraded with half-lives reaching only a few minutes^6-8.
For enzymatic degradation assays using either NEP or DPP-IV (R&D systems, UK), an enzyme titration was carried out to ensure full degradation within one hour of reaction time.
MALDI-TOF-MS was performed on a Bruker Autoflex instrument (Bruker Daltonik GmbH, Bremen, Germany) by mixing the quenched aliquots with a saturated solution of α-Cyano-4-hydroxycinnamic acid in ACN/H2O/TFA (70:30:0.1) at a ratio 1:1 on a target steel plate and mass-spectra were acquired in linear mode.
Reactions were performed in 50 mM Tris, 0.05% Brij-35, pH 9 (Neprilysin), or 50 mM Tris, 20 mM NaCl, pH 7.5 (IDE) and incubated at 37° C.

Chain of neprilysin (NEP) (P08473 whole entry): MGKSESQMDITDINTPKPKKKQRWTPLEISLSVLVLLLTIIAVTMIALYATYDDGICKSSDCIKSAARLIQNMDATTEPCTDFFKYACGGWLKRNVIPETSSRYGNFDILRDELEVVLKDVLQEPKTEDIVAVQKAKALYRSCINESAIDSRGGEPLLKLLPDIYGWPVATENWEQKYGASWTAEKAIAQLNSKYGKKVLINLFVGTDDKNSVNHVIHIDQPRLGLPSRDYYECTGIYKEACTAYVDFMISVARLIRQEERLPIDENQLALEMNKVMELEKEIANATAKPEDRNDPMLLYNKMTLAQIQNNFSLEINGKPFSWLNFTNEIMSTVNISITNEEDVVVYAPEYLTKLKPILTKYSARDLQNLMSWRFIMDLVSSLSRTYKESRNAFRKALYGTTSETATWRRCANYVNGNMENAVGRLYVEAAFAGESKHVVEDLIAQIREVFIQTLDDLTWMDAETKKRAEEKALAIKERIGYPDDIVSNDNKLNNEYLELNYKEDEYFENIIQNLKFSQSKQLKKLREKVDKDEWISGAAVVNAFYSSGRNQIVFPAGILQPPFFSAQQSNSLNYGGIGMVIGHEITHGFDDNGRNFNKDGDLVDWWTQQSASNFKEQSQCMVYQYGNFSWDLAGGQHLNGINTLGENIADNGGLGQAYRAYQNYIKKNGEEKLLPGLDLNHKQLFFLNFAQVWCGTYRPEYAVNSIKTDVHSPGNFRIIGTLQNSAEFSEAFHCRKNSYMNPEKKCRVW

CC[C@H](C)[C@@H]1NC(=O)[C@H](CCCNC(=N)N)NC(=O)[C@H](CC(=O)O)NC(=O)[C@H](CCSC)NC(=O)[C@H](CCCNC(=N)N)NC(=O)CNC(=O)CNC(=O)[C@H](Cc2ccccc2)NC(=O)[C@@H](NC(=O)[C@H](CO)NC(=O)[C@H](CO)NC(=O)[C@H](CCCNC(=N)N)NC(=O)[C@H](CCCNC(=N)N)NC(=O)[C@H](CC(C)C)NC(=O)[C@@H](N)CO)CSSC[C@@H](C(=O)N[C@@H](CC(N)=O)C(=O)N[C@@H](CO[C@H]2O[C@H](CO)[C@H](O)[C@H](O)[C@H]2NC(C)=O)C(=O)N[C@@H](Cc2ccccc2)C(=O)N[C@@H](CCCNC(=N)N)C(=O)N[C@@H](Cc2ccc(O)cc2)C(=O)O)NC(=O)CNC(=O)[C@H](CC(C)C)NC(=O)CNC(=O)[C@H](CO[C@H]2O[C@H](CO)[C@H](O)[C@H](O)[C@H]2NC(C)=O)NC(=O)[C@H](CCC(N)=O)NC(=O)[C@H](C)NC(=O)CNC1=O [ANP-Ser19+25/Tn]
major degradation products remained detectable after incubation with neprilysin (37° C.): 24 h
residual full length / partially intact peptide detectable after incubation with NEP (37° C., MALDI-TOF): 30 min

CC[C@H](C)[C@@H]1NC(=O)[C@H](CCCNC(=N)N)NC(=O)[C@H](CC(=O)O)NC(=O)[C@H](CCSC)NC(=O)[C@H](CCCNC(=N)N)NC(=O)CNC(=O)CNC(=O)[C@H](Cc2ccccc2)NC(=O)[C@@H](NC(=O)[C@H](CO)NC(=O)[C@H](CO)NC(=O)[C@H](CCCNC(=N)N)NC(=O)[C@H](CCCNC(=N)N)NC(=O)[C@H](CC(C)C)NC(=O)[C@@H](N)CO)CSSC[C@@H](C(=O)N[C@@H](CC(N)=O)C(=O)N[C@@H](CO)C(=O)N[C@@H](Cc2ccccc2)C(=O)N[C@@H](CCCNC(=N)N)C(=O)N[C@@H](Cc2ccc(O)cc2)C(=O)O)NC(=O)CNC(=O)[C@H](CC(C)C)NC(=O)CNC(=O)[C@H](CO[C@H]2O[C@H](CO)[C@H](O)[C@H](O)[C@H]2NC(C)=O)NC(=O)[C@H](CCC(N)=O)NC(=O)[C@H](C)NC(=O)CNC1=O [ANP-Ser19/Tn]
major degradation products remained detectable after incubation with neprilysin (37° C.): 24 h
residual full length / partially intact peptide detectable after incubation with NEP (37° C., MALDI-TOF): 60 min

CC[C@H](C)[C@@H]1NC(=O)[C@H](CCCNC(=N)N)NC(=O)[C@H](CC(=O)O)NC(=O)[C@H](CCSC)NC(=O)[C@H](CCCNC(=N)N)NC(=O)CNC(=O)CNC(=O)[C@H](Cc2ccccc2)NC(=O)[C@@H](NC(=O)[C@H](CO)NC(=O)[C@H](CO)NC(=O)[C@H](CCCNC(=N)N)NC(=O)[C@H](CCCNC(=N)N)NC(=O)[C@H](CC(C)C)NC(=O)[C@@H](N)CO)CSSC[C@@H](C(=O)N[C@@H](CC(N)=O)C(=O)N[C@@H](CO[C@H]2O[C@H](CO)[C@H](O)[C@H](O)[C@H]2NC(C)=O)C(=O)N[C@@H](Cc2ccccc2)C(=O)N[C@@H](CCCNC(=N)N)C(=O)N[C@@H](Cc2ccc(O)cc2)C(=O)O)NC(=O)CNC(=O)[C@H](CC(C)C)NC(=O)CNC(=O)[C@H](CO)NC(=O)[C@H](CCC(N)=O)NC(=O)[C@H](C)NC(=O)CNC1=O [ANP-Ser25/Tn]
residual full length / partially intact peptide detectable after incubation with NEP (37° C., MALDI-TOF): 15 min

CC(C)C[C@H](NC(=O)CNC(=O)[C@H](CCC(N)=O)NC(=O)[C@H](CC(C)C)NC(=O)[C@H](CC(C)C)NC(=O)[C@H](CCCNC(=N)N)NC(=O)[C@H](CCC(N)=O)NC(=O)[C@H](CC(C)C)NC(=O)[C@H](CCCNC(=N)N)NC(=O)[C@H](C)NC(=O)CNC(=O)[C@H](CCC(=O)O)NC(=O)[C@H](CCCNC(=N)N)NC(=O)[C@H](CC(C)C)NC(=O)[C@H](CCCNC(=N)N)NC(=O)[C@H](CO)NC(=O)[C@H](CC(C)C)NC(=O)[C@H](CCC(=O)O)NC(=O)[C@H](CO)NC(=O)[C@@H](NC(=O)[C@H](Cc1ccccc1)NC(=O)[C@@H](NC(=O)CNC(=O)[C@H](CC(=O)O)NC(=O)[C@H](CO)NC(=O)[C@@H](N)Cc1c[nH]cn1)[C@@H](C)O)[C@@H](C)O)C(=O)N[C@H](C(N)=O)C(C)C [Secretin, reference compound]
time to complete degradation by NEP (37° C., MALDI-TOF): ≤ 60 min

CC(=O)N[C@H]1[C@@H](O[C@H](C)[C@H](NC(=O)[C@H](Cc2ccccc2)NC(=O)[C@@H](NC(=O)CNC(=O)[C@H](CC(=O)O)NC(=O)[C@H](CO)NC(=O)[C@@H](N)Cc2c[nH]cn2)[C@@H](C)O)C(=O)N[C@@H](CO)C(=O)N[C@@H](CCC(=O)O)C(=O)N[C@@H](CC(C)C)C(=O)N[C@@H](CO)C(=O)N[C@@H](CCCNC(=N)N)C(=O)N[C@@H](CC(C)C)C(=O)N[C@@H](CCCNC(=N)N)C(=O)N[C@@H](CCC(=O)O)C(=O)NCC(=O)N[C@@H](C)C(=O)N[C@@H](CCCNC(=N)N)C(=O)N[C@@H](CC(C)C)C(=O)N[C@@H](CCC(N)=O)C(=O)N[C@@H](CCCNC(=N)N)C(=O)N[C@@H](CC(C)C)C(=O)N[C@@H](CC(C)C)C(=O)N[C@@H](CCC(N)=O)C(=O)NCC(=O)N[C@@H](CC(C)C)C(=O)N[C@H](C(N)=O)C(C)C)O[C@H](CO)[C@H](O)[C@@H]1O [Secretin-Thr7-Tn]
remained (completely) intact after incubation with NEP (37° C., MALDI-TOF): 60 min

CC[C@H](C)[C@H](NC(=O)[C@H](CO)NC(=O)[C@H](CC(N)=O)NC(=O)[C@H](CC(C)C)NC(=O)[C@H](Cc1ccc(O)cc1)NC(=O)[C@H](CCCCN)NC(=O)[C@H](CCCCN)NC(=O)[C@@H](NC(=O)[C@H](C)NC(=O)[C@H](CCSC)NC(=O)[C@H](CCC(N)=O)NC(=O)[C@H](CCCCN)NC(=O)[C@H](CCCN=C(N)N)NC(=O)[C@H](CC(C)C)NC(=O)[C@H](CCCN=C(N)N)NC(=O)[C@@H](NC(=O)[C@H](Cc1ccc(O)cc1)NC(=O)[C@H](CC(N)=O)NC(=O)[C@H](CC(=O)O)NC(=O)[C@@H](NC(=O)[C@H](Cc1ccccc1)NC(=O)[C@@H](NC(=O)[C@H](C)NC(=O)[C@H](CC(=O)O)NC(=O)[C@H](CO)NC(=O)[C@@H](N)Cc1c[nH]cn1)C(C)C)[C@@H](C)O)[C@@H](C)O)C(C)C)C(=O)N[C@@H](CC(C)C)C(=O)N[C@@H](CC(N)=O)C(N)=O [VIP, Vasoactive intestinal peptide, reference compound]
time to complete degradation by NEP (37° C., MALDI-TOF): 15 min

CC[C@H](C)[C@H](NC(=O)[C@H](CO)NC(=O)[C@H](CC(N)=O)NC(=O)[C@H](CC(C)C)NC(=O)[C@H](Cc1ccc(O)cc1)NC(=O)[C@H](CCCCN)NC(=O)[C@H](CCCCN)NC(=O)[C@@H](NC(=O)[C@H](C)NC(=O)[C@H](CCSC)NC(=O)[C@H](CCC(N)=O)NC(=O)[C@H](CCCCN)NC(=O)[C@H](CCCNC(=N)N)NC(=O)[C@H](CC(C)C)NC(=O)[C@H](CCCNC(=N)N)NC(=O)[C@@H](NC(=O)[C@H](Cc1ccc(O)cc1)NC(=O)[C@H](CC(N)=O)NC(=O)[C@H](CC(=O)O)NC(=O)[C@@H](NC(=O)[C@H](Cc1ccccc1)NC(=O)[C@@H](NC(=O)[C@H](C)NC(=O)[C@H](CC(=O)O)NC(=O)[C@H](CO)NC(=O)[C@@H](N)Cc1c[nH]cn1)C(C)C)[C@@H](C)O[C@H]1O[C@H](CO)[C@H](O)[C@H](O[C@@H]2O[C@H](CO)[C@H](O)[C@H](O)[C@H]2O)[C@H]1NC(C)=O)[C@@H](C)O)C(C)C)C(=O)N[C@@H](CC(C)C)C(=O)N[C@@H](CC(N)=O)C(N)=O [VIP-Thr7/T]
residual full length / partially intact peptide detectable after incubation with NEP (37° C., MALDI-TOF): 30 min

CC[C@H](C)[C@H](NC(=O)[C@H](CO)NC(=O)[C@H](CC(N)=O)NC(=O)[C@H](CC(C)C)NC(=O)[C@H](Cc1ccc(O)cc1)NC(=O)[C@H](CCCCN)NC(=O)[C@H](CCCCN)NC(=O)[C@@H](NC(=O)[C@H](C)NC(=O)[C@H](CCSC)NC(=O)[C@H](CCC(N)=O)NC(=O)[C@H](CCCCN)NC(=O)[C@H](CCCNC(=N)N)NC(=O)[C@H](CC(C)C)NC(=O)[C@H](CCCNC(=N)N)NC(=O)[C@@H](NC(=O)[C@H](Cc1ccc(O)cc1)NC(=O)[C@H](CC(N)=O)NC(=O)[C@H](CC(=O)O)NC(=O)[C@@H](NC(=O)[C@H](Cc1ccccc1)NC(=O)[C@@H](NC(=O)[C@H](C)NC(=O)[C@H](CC(=O)O)NC(=O)[C@H](CO)NC(=O)[C@@H](N)Cc1c[nH]cn1)C(C)C)[C@@H](C)O[C@H]1O[C@H](CO)[C@H](O)[C@H](O)[C@H]1NC(C)=O)[C@@H](C)O)C(C)C)C(=O)N[C@@H](CC(C)C)C(=O)N[C@@H](CC(N)=O)C(N)=O [VIP-Thr7/Tn]
residual full length / partially intact peptide detectable after incubation with NEP (37° C., MALDI-TOF): 15 min

Galanin-Ser55/ST: sialylated Galanin variant
remained intact / resistant to NEP degradation even after: 24 h
state after overnight incubation with neprilysin: remained partially intact

Ser23-T: Galanin Ser23 T extended glycoform
time to complete degradation by NEP: 120 min

Ser23-Tn: Galanin Ser23-Tn glycoform
time to complete degradation by NEP: 120 min
